pIC50: −log10 of the molar value. “And” between values parts separate entries of the source, which are not always exact repeats. Identical values can stand only once.
Assays:
Trypanosoma cruzi [1] = assay: microbe, parasite or virus in culture; assay type: functional, organism-based, Tulahuen LacZ, Clone C4
[2] = (§1) DNDI: Cytotoxicity against L-6 rat myoblasts from skeletal muscle cells; conditions: L6 rat skeletal muscle myoblast cells
L6 = assay: as §1; conditions: L6 rat skeletal muscle myoblast cells
Trypanosoma cruzi [3] = assay: microbe, parasite or virus in culture; assay type: functional, Tulahuen LacZ, Clone C4
[4] = Trypanosoma cruzi, Tulahuen LacZ, Clone C4

| pIC50 (Trypanosoma cruzi [1]) | pIC50 (Trypanosoma cruzi [1]; [4]) | IC90 (Trypanosoma cruzi [3]; [4]) [nM] | IC90 (Trypanosoma cruzi [3]) | Structure (SMILES) | pIC50 [2] | pIC50 (L6) | pIC50 ([2]; IC50) |
| --- | --- | --- | --- | --- | --- | --- | --- |
|  | 7.62 | 97 |  | O=S(=O)(c1ccc(Cl)cc1)N1CCN(C(c2ccc(Cl)cc2)c2cccnc2)CC1 (configuration not stated) |  | 4.64 |  |
|  | 7.72 | 88 |  | CC(C)(C)C(=O)N1CCN(C(c2cccnc2)c2ccc(Cl)cc2F)CC1 (configuration not stated) |  | 4.22 |  |
|  | 7.63 | 68.5 |  | CC(C)(C)C(=O)N1CCN(C(c2cccnc2)c2ccc(C(F)(F)F)cc2F)CC1 (configuration not stated) |  | 4.14 |  |
|  | 8.00 | 30 |  | O=C(Nc1ccc(Cl)cc1)N1CCN(C(c2cncnc2)c2ccc(Cl)cc2F)CC1 (configuration not stated) |  | 4.47 |  |
|  | 7.17 | 160 |  | O=C(c1ccccc1)N1CCN(C(c2ccc(Cl)cc2)c2cccnc2)CC1 (configuration not stated) |  | 4.21 |  |
| 8.59 and 8.22 |  | 7.5 | 8 nM | CS(=O)(=O)c1ccc(N2CCC(NC(c3cccnc3)c3ccc(Cl)cc3F)CC2)cc1 (configuration not stated) |  | 4.57 | 4.30 |
|  | 8.05 | 34 |  | O=C(Nc1ccccc1)N1CCN(C(c2ccc(Cl)cc2)c2cccnc2)CC1 (configuration not stated) |  | 4.17 |  |
| 8.10 and 7.78 |  | 24 | 31.5 nM | Fc1cc(Cl)ccc1C(NC1CCN(c2ccc(C(F)(F)F)cc2F)CC1)c1cccnc1 (configuration not stated) |  | 4.28 | 4.29 |
| 8.18 | 8.15 | 17.5 | 16 nM | FC(F)(F)c1ccc(N2CCC(NC(c3ccc(Cl)cc3)c3cccnc3)CC2)cn1 (configuration not stated) |  | 4.26 | 4.40 |
|  |  |  |  | CC(C)CCON=C(Cc1cccnc1)c1ccc(Cl)cc1Cl |  | 4.23 | 4.21 |
|  | 8.21 | 24 |  | O=C(Nc1ccccc1)N1CCN(C(c2cccnc2)c2ccc(Cl)cc2F)CC1 (configuration not stated) |  | 4.35 |  |
|  | 8.19 | 16 |  | CC(C)c1ccc(NC(=O)N2CCN(C(c3cncnc3)c3ccc(Cl)cc3F)CC2)cc1 (configuration not stated) |  | 4.21 |  |
|  | 7.78 | 33 |  | Cc1noc(N2CCN(C(c3cccnc3)c3ccc(C(F)(F)F)cc3F)CC2)n1 (configuration not stated) |  | 4.29 |  |
| 8.07 | 7.78 | 24 | 37 nM | O=C(NC1CCN(C(c2ccc(C(F)(F)F)cc2)c2cccnc2)CC1)c1c(F)cccc1F (configuration not stated) |  | < 4.00 | 4.25 |
|  | 7.66 | 65 |  | O=C(Nc1ccc(Cl)cc1)N1CCN(C(c2ccc(Cl)cc2)c2cncnc2)CC1 (configuration not stated) |  | 4.23 |  |
| 7.90 | 7.68 | 37 | 34 nM | N#Cc1cccc(N2CCC(NC(c3cccnc3)c3ccc(Cl)cc3F)CC2)c1 (configuration not stated) |  | 4.49 | 4.26 |
| 7.77 | 7.89 | 108 | 99 nM | OC(c1ccc(Cl)cc1)(c1cccnc1)c1cccs1 (configuration not stated) |  | 4.17 | < 4.00 |
| 7.96 and 7.98 | 8.02 | 29.5 | 37.5 nM and 34 nM | Fc1cc(Cl)ccc1C(NC1CCN(c2ccc(C(F)(F)F)cc2)CC1)c1cccnc1 (configuration not stated) |  | 4.28 | 4.25 |
|  | 7.56 | 82.5 |  | CS(=O)(=O)N1CCN(C(c2cccnc2)c2ccc(C(F)(F)F)cc2F)CC1 (configuration not stated) |  | 4.11 |  |
|  | 7.62 | 420 |  | CC(C)(C)OC(=O)N1CCN(C(c2cncnc2)c2ccc(Cl)cc2F)CC1 (configuration not stated) |  | 4.19 |  |
| 6.68 and 6.33 and 6.53 |  |  |  | CON=C(Cc1cccnc1)c1ccc(Cl)cc1Cl |  | 4.09 | < 4.00 |
| 8.26 and 8.72 |  | 12.5 | 9.52 nM | N#Cc1ccc(C(O)(c2ccc(C(F)(F)F)cc2)c2cccnc2)c(F)c1 (configuration not stated) |  | 4.25 | 4.11 |
|  | 7.77 | 54 |  | CC(C)(C)OC(=O)N1CCN(C(c2ccc(C(F)(F)F)cc2)c2cccnc2)CC1 (configuration not stated) |  | 4.25 |  |
| 7.72 and 7.34 |  | 48 | 90 nM | FC(F)(F)c1ccc(N2CCC(NC(c3ccc(Cl)cc3)c3cccnc3)CC2)nc1 (configuration not stated) |  | 4.20 | 4.26 |
|  | 7.52 | 127 |  | CC(C)(C)C(=O)N1CCN(C(c2ccc(C(F)(F)F)cc2)c2cccnc2)CC1 (configuration not stated) |  | 4.23 |  |
|  | 8.00 | 35 |  | O=S(=O)(C1CCCCC1)N1CCN(C(c2ccc(Cl)cc2)c2cccnc2)CC1 (configuration not stated) |  | 4.25 |  |
| 7.17 and 7.62 |  | 158 | 310 nM | Cc1ccc(C(O)(c2ccc(Cl)cc2)c2cncnc2)cc1 (configuration not stated) |  | 4.17 | 4.10 |
|  | 7.92 | 57 |  | CC(C)c1ccc(S(=O)(=O)N2CCN(C(c3ccc(Cl)cc3)c3cccnc3)CC2)cc1 (configuration not stated) |  | 4.10 |  |

| Structure (SMILES) | pIC50 (Trypanosoma cruzi [1]) | pIC50 (Trypanosoma cruzi [1]; [4]) | IC90 (Trypanosoma cruzi [3]; [4]) [nM] | IC90 (Trypanosoma cruzi [3]) | pIC50 [2] | pIC50 (L6) | pIC50 ([2]; IC50) |
| --- | --- | --- | --- | --- | --- | --- | --- |
| OC(c1ccc(Cl)cc1)(c1cccnc1)c1ccccc1Cl (configuration not stated) | 6.68 | 6.57 |  |  | 4.22 | 4.21 |  |
| O=C(Oc1ccccc1)N1CCN(C(c2cccnc2)c2ccc(Cl)cc2F)CC1 (configuration not stated) |  | 8.35 | 12 |  |  | 4.23 |  |
| CC(C)Oc1ccc(C(O)(c2ccc(Cl)cc2)c2cccnc2)cc1 (configuration not stated) | 8.09 and 8.70 |  |  | 18 nM and 6 nM | 4.28 | 4.25 |  |
| O=C(Oc1ccccc1)N1CCN(C(c2ccc(Cl)cc2)c2cccnc2)CC1 (configuration not stated) |  | 8.10 | 32 |  |  | 4.25 |  |

Source: ChEMBL document CHEMBL1862790, “Optimisation of fenarimol series for the treatment of Chagas disease”
